From publication PMC4457643 (Biochimica et biophysica acta, 2015)
Like-named read-outs stand apart in the source and are kept apart here.

Key:
[1] = target: T1, CcP(triAla) (Saccharomyces cerevisiae, UniProt P00431, H119A/R115A/W118A); assay: biochemical; assay type: binding, yeast; details: for share of absorbance change, high-affinity (KD1) phase / share of absorbance change, low-affinity (KD2) phase: pH 7.0
[2] = target: T2, CcP(triVal) (Saccharomyces cerevisiae, UniProt P00431, H119V/R115V/W118V); assay: biochemical; assay type: binding, yeast; details: for share of absorbance change, high-affinity (KD1) phase / share of absorbance change, low-affinity (KD2) phase: pH 7.0
T2 sequence (P00431 68-361 R115V/W118V/H119V): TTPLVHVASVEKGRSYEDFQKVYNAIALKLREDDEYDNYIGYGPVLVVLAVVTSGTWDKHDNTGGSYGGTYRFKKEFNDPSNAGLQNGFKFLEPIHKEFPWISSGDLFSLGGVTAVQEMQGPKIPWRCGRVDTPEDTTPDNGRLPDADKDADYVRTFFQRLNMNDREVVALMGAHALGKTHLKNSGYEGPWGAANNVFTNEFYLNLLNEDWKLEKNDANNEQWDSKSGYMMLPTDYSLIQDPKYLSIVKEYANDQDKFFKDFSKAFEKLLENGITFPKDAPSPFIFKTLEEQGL

[3] = target: T3, CcP(triLeu) (Saccharomyces cerevisiae, UniProt P00431, H119L/R115L/W118L); assay: biochemical; assay type: binding, yeast
T3 sequence (P00431 68-361 R115L/W118L/H119L): as the sequence (P00431 68-361 R115V/W118V/H119V) above, with V48L, V51L, V52L counted along it

[4] = free ligand; cited from earlier work
[5] = target: T1, CcP(triAla); assay: Stopped-flow kinetics of imidazole binding to CcP; design: species or system yeast
[6] = target: T3, CcP(triLeu); assay: Stopped-flow kinetics of imidazole binding to CcP; design: species or system yeast; details: for pKa1 for ka^app / pKa2 for ka^app: fit to Eq. 4 with pKa1 ≤ pKa2
[7] = target: T2, CcP(triVal); assay: Stopped-flow kinetics of imidazole binding to CcP; design: species or system yeast; details: for pKa1 for ka^app / kd^app, k^acid (low pH limit): fit to Eq. 4; for ka^app, k^acid (low pH value): fit to Eq. 4, 0.10 M ionic strength, 25 °C; for ka^app / kd^app / kmax: pH 7
[8] = read-out: KD2 (low-affinity phase), pH 7.0, 0.10 M ionic strength potassium phosphate buffer
[9] = read-out: KD1 (high-affinity phase), pH 7.0, 0.10 M ionic strength potassium phosphate buffer
[10] = read-out: KD1acid (low pH limit of KD1), fit of pH dependence pH 4-8 to Eq. 2
[11] = read-out: KD1base (high pH limit of KD1), fit of pH dependence pH 4-8 to Eq. 2
[12] = read-out: KD2base (high pH limit of KD2), fit of pH dependence pH 4-8 to Eq. 2
[13] = fast phase, fit to Eq. 4, 0.10 M ionic strength, 25 °C
[14] = fast phase, listed as imidazole
[15] = slow phase, single-ionization fit
[16] = slow phase, listed as imidazole

T1 sequence (P00431 68-361 R115A/W118A/H119A): as the sequence (P00431 68-361 R115V/W118V/H119V) above, with V48A, V51A, V52A counted along it

In the case of `Cn1ccnc1` [1-Methylimidazole, 1-methylimidazole], the Kd [1] is reported as 0.35 mM, the “share of absorbance change, high-affinity (KD1) phase” value [1] is reported as 30% and the “share of absorbance change, low-affinity (KD2) phase” value [1] is reported as 70%. The “share of absorbance change, low-affinity (KD2) phase” value ([1]; listed as MIM) was “about 70%”, the Kd [2] was 0.16 mM and the “share of absorbance change, high-affinity (KD1) phase” value [2] was 77%. For the same compound, the “share of absorbance change, low-affinity (KD2) phase” value [2] was 23%, the Kd [2, 8] was 6.8 mM and the Kd [3] was 39 mM.
In the case of `O=[N+]([O-])c1c[nH]cn1` [4-Nitroimidazole, 4-nitroimidazole], the Kd [1] is listed as 16 mM, the “pKa for the imidazole/imidazolate ionization” value [4] is listed as 9.5 and the Kd [2] is listed as 0.56 mM. For the same compound, the Kd [3] was 35 mM.
For `c1c[nH]cn1` [Imidazole], the “share of absorbance change at 414 nm, low-affinity phase” value ([1]; between pH 4 and 8) was 75 ± 8%, the “share of absorbance change, low-affinity phase” value ([1]; pH 5.5) was 76% and the “share of absorbance change, high-affinity (KD1) phase” value [1] was 17%. For the same compound, the “share of absorbance change, low-affinity (KD2) phase” value [1] was 83%, the Kd ([1]; read-out: KD1 (high-affinity phase), pH 5.5, 25 °C) was 0.1 ± 0.03 mM and the Kd [1, 9] was 0.22 mM. The Kd [1, 10] was > 25 mM, the Kd [1, 11] was 0.13 ± 0.06 mM and the Kd [1, 8] was 12 mM. For the same compound, the Kd ([1]; read-out: KD2 (low-affinity phase), pH 7.0, 25 °C) was 11 ± 1 mM, the Kd [1, 12] was 6.4 ± 0.7 mM and the “pKa1 for ka^app” value ([5]; fast phase, fit to Eq. 4) was 7.0 ± 0.2. The “ka^app, k^acid (low pH value)” value [5, 13] was 2.2 ± 0.4 M^−1 s^−1, the “ka^app” value ([5]; fast phase, pH 7) was 80 ± 7 M⁻¹ s⁻¹ and the “kd^app” value ([5]; fast phase, pH 7) was 0.43 ± 0.04 s⁻¹. For the same compound, the “kd^app, pH-independent average value” ([5]; fast phase, pH range 4.0 to 8.0) was 0.47 ± 0.10 s^−1, the kmax ([5]; slow phase, pH 7) was 0.050 ± 0.009 s⁻¹ and the “kmax (= kslow), pH-independent average value” ([5]; slow phase, pH range 4.0 to 8.0) was 0.032 ± 0.011 s^−1. The “kmax (= kslow), pH-independent average value” ([5]; slow phase, pH range 4.0 to 8.0, listed as imidazole) was “(3.2 ± 1.1) × 10^−2 s^−1”, the “ka^app, k^acid (low pH value)” value [6, 13] was 2.2 ± 0.4 M^−1 s^−1 and the “ka^app, k^base (high pH value)” value [6, 13] was 0 ± 25 M^−1 s^−1. For the same compound, the “ka^app, k^base (high pH value)” value ([6]; fast phase, fit to Eq. 4, 0.10 M ionic strength, 25 °C, listed as imidazole) was “less than 25 M^−1 s^−1”, the “pKa1 for ka^app” value ([6]; fast phase) was 7.3 ± 0.9 and the “pKa2 for ka^app” value ([6]; fast phase) was 7.3 ± 1.5. For the same compound, the “pKa1 for ka^app” value [6, 14] was 7.3, the “pKa2 for ka^app” value [6, 14] was 7.3 and the “ka^app” value ([6]; fast phase, pH 7) was 36 ± 4 M⁻¹ s⁻¹. The “kd^app” value ([6]; fast phase, pH 7) was 0.24 ± 0.03 s⁻¹, the “kd^app, pH-independent average value” ([6]; fast phase, pH range 4 to 8) was 0.38 ± 0.12 s^−1 and the “kmax, average value” ([6]; slow phase, averaged over pH range 4 to 8) was 0.048 ± 0.018 s⁻¹. For the same compound, the kmax ([6]; slow phase, pH 7) was 0.070 ± 0.002 s⁻¹, the “kmax (= kslow), k^acid (low pH value)” value [6, 15] was 0.032 ± 0.003 s^−1 and the “kmax (= kslow), k^neut (high pH value)” value [6, 15] was 0.077 ± 0.011 s^−1. The pKa1 for kmax [6, 15] was 6.7 ± 0.4, the “pKa1 for ka^app” value ([7]; fast phase) was 6.2 ± 0.3 and the “ka^app, k^acid (low pH value)” value ([7]; fast phase) was 5.4 ± 16.2 M^−1 s^−1. For the same compound, the “ka^app, k^acid (low pH value)” value [7, 14] was 5.4 M^−1 s^−1, the “ka^app” value ([7]; fast phase) was 170 ± 7 M⁻¹ s⁻¹ and the “kd^app” value ([7]; fast phase) was 0.32 ± 0.01 s⁻¹. The kmax ([7]; fast phase) was 1.9 ± 0.1 s⁻¹, the “kd^app, pH-independent average value” ([7]; fast phase, pH range 4 to 8) was 0.25 ± 0.08 s^−1 and the “kmax, pH-independent value” ([7]; fast phase, pH range 4 to 8) was 1.5 ± 0.3 s^−1. The “kmax, pH-independent value” ([7]; fast phase, pH range 4 to 8, listed as imidazole) was 1.5 s^−1, the “kd^app, k^acid (low pH limit)” value ([7]; slow phase) was 0.026 ± 0.009 s^−1 and the “pKa1 for ka^app” value ([7]; slow phase) was 7.6 ± 0.3. For the same compound, the “ka^app, k^acid (low pH value)” value ([7]; slow phase) was 1.3 ± 0.7 M^−1 s^−1, the “ka^app, k^acid (low pH value)” value [7, 16] was 1.3 M^−1 s^−1 and the “kd^app, k^acid (low pH limit)” value [7, 16] was 0.026 s^−1. The “ka^app” value ([7]; slow phase) was 30 ± 10 M⁻¹ s⁻¹, the “kd^app” value ([7]; slow phase) was 0.050 ± 0,006 s^−1 and the kmax ([7]; slow phase) was 0.16 ± 0.08 s⁻¹. For the same compound, the “kmax, pH-independent value” ([7]; slow phase, pH range 4 to 8) was 0.17 ± 0.04 s^−1, the “kmax, pH-independent value” ([7]; slow phase, pH range 4 to 8, listed as imidazole) was 0.17 s^−1 and the “high-affinity imidazole binding stronger than for wild-type CcP” value ([2]; pH 7) was 4.7 orders of magnitude. The “share of absorbance change, high-affinity (KD1) phase” value [2] was 68%, the “share of absorbance change, low-affinity (KD2) phase” value [2] was 32% and the “share of absorbance change, high-affinity phase, average” value ([2]; pH range 4 to 8) was 67 ± 10%. For the same compound, the Kd [2, 9] was 0.083 mM, the Kd [2, 10] was 9.6 ± 5.5 mM and the Kd [2, 11] was 0.096 ± 0.007 mM. For the same compound, the Kd ([2]; read-out: KD1base (high pH limit of KD1), fit of pH dependence to Eq. 2) was 0.096 ± 0.007 mM, the Kd [2, 8] was 12 mM and the Kd [2, 12] was 6.7 ± 2.3 mM. For the same compound, the “share of absorbance change, high-affinity (KD1) phase” value ([3]; pH 7.0) was 78%, the “share of absorbance change, low-affinity (KD2) phase” value ([3]; pH 7.0) was 22% and the Kd [3, 9] was 0.6 mM. It also gave a Kd [3, 11] of 0.22 ± 0.15 mM and a Kd [3, 8] of 17 mM.
